Where two headings read alike, the source gives them in different places.
Columns and labels:
[1] = target: ECF‐module (EcfTAA′) (Streptococcus pneumoniae, UniProt A0A0H2ZPG6+Q04HV7+Q97N51); experiment: SPR binding to immobilized ECF‐module
Excerpt: After identifying the optimal buffer and assessing the stability of the ECF transporter proteins, we proceeded to determine the binding affinity (K d) of small‐molecule inhibitors using SPR. This label‐free technique allows for the investigation of protein–ligand interactions in real time and requires protein immobilization (GE Healthcare Life Science, [2012]). […] The ECF‐PanT, ECF‐module, and ECF‐FolT2, each bearing a histidine tag, were immobilized on a high‐affinity poly‐nitrilotriacetic acid (poly‐NTA) sensor chip, which was initially activated using NiCl2. The His‐tagged proteins were then injected over the Ni^2+‐activated surface to strongly bind to the metal (Knecht et al., [2009]). The immobilization resonance unit (RU) levels were 12,000–15,000 for ECF‐PanT, 9000–12,000 for the ECF‐module, and 6000–9000 for ECF‐FolT2.
In this assay, we used HEPES buffer (10 mM HEPES, 50 mM NaCl, 50 μM EDTA, 0.05% (v/v) DDM, and a pH value of 7.5) as recommended by Xantec Bioanalytics, with a slight modification made to create a more favorable environment for the ECF proteins, enabling their stability to be maintained throughout the assay. Additionally, the protein was maintained in the buffer containing 5% (v/v) DMSO. For a more in‐depth description of the procedures, please refer to Appendix S1.
Surface plasmon resonance (SPR)
The SPR binding studies were performed using a Reichert 4SPR surface plasmon resonance spectrometer (Reichert Technologies, Buffalo, NY, USA), and medium–density NTA derivatized polycarboxylate hydrogel NiHC200M sensor chips (XanTec Bioanalytics, Düsseldorf, Germany). The experimental procedure involved two rounds of nickel activation and one immobilization step at a concentration of 200 nM. The proteins ECF-module (92,56146 kDa), ECF-PanT (113,8745 kDa), and ECF-FolT2 (112,16316 kDa) were immobilized in flow cells 1, 2, and 3, respectively according to the standard protocol as provided by Xantec bioanalytics with a slight modification based on the recombinant proteins. The flow-cell 4 was left blank to serve as a reference.
The immobilization buffer employed for the immobilization process consisted of 10 mM HEPES with a pH of 7.5, 50 mM NaCl, 50 µM EDTA, and 0.05% DDM without DMSO. Following the immobilization step, for the binding study of the compounds, the running buffer was exchanged for the mentioned buffer with 5% v/v DMSO. This was done to ensure consistency in the percentage of DMSO present in the solutions containing the respective testing inhibitors, as these inhibitors were soluble in the DMSO solvent. By maintaining the same DMSO concentration, we aimed to minimize any potential solvent-related effects on the assay results. All running buffers were filtered and degassed before use.
The system was initially primed with 5 mM NiCl2 with an association and dissociation time of 2 min for each to activate the NTA sensor chip. Then, the recombinant proteins with a concentration of 200 nM were injected at a flow rate of 10 µL/min for 8 min. Finally, the baseline check with the running […]
the ECF-module, ECF-PanT, and ECF-FolT2, respectively.
First, the calibration curve for correction of the DMSO effect was prepared; the concentrations were 3%, 3.5% 4%, 4.5%, 5%, 5.5%, 6%, 6.5%, and 7% v/v and were diluted with SPR buffer. Then, the […]
concentration of DMSO in all the samples was set to 5% v/v DMSO. The samples (200 µL) were loaded on a 96-well plate and were injected at a flow rate of 50 μL/min. Single-cycle kinetics were applied for KD determination. The association time was set to 60 s, and the dissociation phase was recorded for 120 s. For surface regeneration, 0.35 M EDTA (pH 8.5) and 0.1 M NaOH were used. Data processing and analysis were performed by Scrubber software (Version 2.0c, 2008, BioLogic Software). Sensorgrams were calculated by sequential subtractions of the corresponding curves obtained from the reference flow cell and the running buffer (blank). SPR responses were expressed in the resonance unit (RU). The KD […]

[2] = In vitro MTT cytotoxicity assay, A549; format: cell-based, human; settings: human, read-out: Percent (%) cell viability at 100 μM, A549 cells
Method: In vitro cytotoxicity evaluation […]
with minor modifications, which will be detailed below.
To obtain information regarding the toxicity of our compounds, their impact on the viability of human cells was investigated. HepG2 and A549 cells (2 × 10^4 cells per well) were seeded in 96-well, flat-bottomed culture plates in 100 µL culture medium (DMEM containing 10% fetal calve serum, 1% penicillin-streptomycin). Twenty-four hours after seeding the cells, medium was removed and replaced by medium containing test compounds in a final DMSO concentration of 1%. Compounds were tested in duplicates at a single concentration in 1% DMSO/medium. Epirubicin and doxorubicin were used as positive controls in serial dilutions starting from 10 µM, and rifampicin was used as a negative control (at 100 µM). The living cell mass was determined 48 h after treatment with compounds by adding 0.1 volumes of 3-(4,5-dimethylthiazol-2-yl)-2,5-diphenyltetrazolium bromide (MTT) solution (5 mg/mL sterile PBS) (Sigma, St. Louis, MO) to the wells. After incubating the cells for 30 min at 37 °C (atmosphere containing 5% CO2), medium was removed and MTT crystals were dissolved in 75 µL of a solution containing 10% SDS and 0.5% acetic acid in DMSO. The optical density (OD) of the samples was determined photometrically at 570 nm in a PHERAstar Omega plate reader (BMG labtech, Ortenberg, Germany). To obtain percent viability for each sample, their ODs were related to those of DMSO controls. At least two independent measurements were performed for each compound. The calculation of IC50 was performed using the nonlinear regression function of GraphPad Prism 10 (GraphPad Software, San Diego, CA, USA). […]

[3] = tested on: S. pneumoniae ECF‐PanT; experiment: Transport‐activity assay, radiolabeled pantothenate uptake into proteoliposomes; format: biochemical, Streptococcus pneumoniae; settings: 250 μM compound + 5 mM of Mg-ATP, relative to 5 mM Mg‐ATP alone
Method: Based on the reported transport activity assay on L. delbrueckii (Swier et al., [2016]), for the first time, we adapted this assay to a pathogenic bacterium. To do so, we purified the ECF‐PanT transporter, reconstituted it into proteoliposomes, and carried out transport assays with radiolabeled pantothenate. Upon the addition of MgATP, the radiolabeled pantothenate is translocated across the membrane via an ATP‐dependent mechanism. MgATP at 5 mM served as a positive control, supplying the proteins with the energy needed to complete the transport cycle, while MgADP at 5 mM was used as a negative control. The uptake of the radiolabeled substrate into proteoliposomes was measured using a scintillation counter.
The assay was performed based on the published protocol (Swier et al., [2016]). The only modification was reconstitution of S. pneumoniae ECF‐PanT in a 1:125 (w/w) ratio of protein to E. coli polar lipids into large unilamellar vesicles and using radiolabeled pantothenate for uptake.

[4] = tested on: Lactobacillus casei; experiment: L. casei whole‐cell uptake assay; format: cell-based; settings: Lacticaseibacillus casei

ECF‐module (EcfTAA′), sequence (Q04HV7 whole entry): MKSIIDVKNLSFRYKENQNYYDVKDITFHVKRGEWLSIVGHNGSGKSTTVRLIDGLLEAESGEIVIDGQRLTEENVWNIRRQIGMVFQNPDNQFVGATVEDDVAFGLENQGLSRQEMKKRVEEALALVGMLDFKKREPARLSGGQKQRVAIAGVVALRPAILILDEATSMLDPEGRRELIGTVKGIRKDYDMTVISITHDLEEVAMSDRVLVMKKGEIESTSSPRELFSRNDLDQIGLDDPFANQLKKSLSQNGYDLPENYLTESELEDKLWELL
ECF‐module (EcfTAA′), sequence (Q97N51 whole entry): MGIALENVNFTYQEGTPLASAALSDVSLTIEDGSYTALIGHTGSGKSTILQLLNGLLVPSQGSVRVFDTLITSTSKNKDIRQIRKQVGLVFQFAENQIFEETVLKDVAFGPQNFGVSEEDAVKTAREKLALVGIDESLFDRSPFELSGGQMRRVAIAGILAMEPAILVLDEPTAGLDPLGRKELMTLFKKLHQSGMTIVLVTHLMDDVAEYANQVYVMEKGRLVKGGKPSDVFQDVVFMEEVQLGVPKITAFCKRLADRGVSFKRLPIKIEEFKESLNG
ECF‐module (EcfTAA′), sequence (A0A0H2ZPG6 entry or part of it): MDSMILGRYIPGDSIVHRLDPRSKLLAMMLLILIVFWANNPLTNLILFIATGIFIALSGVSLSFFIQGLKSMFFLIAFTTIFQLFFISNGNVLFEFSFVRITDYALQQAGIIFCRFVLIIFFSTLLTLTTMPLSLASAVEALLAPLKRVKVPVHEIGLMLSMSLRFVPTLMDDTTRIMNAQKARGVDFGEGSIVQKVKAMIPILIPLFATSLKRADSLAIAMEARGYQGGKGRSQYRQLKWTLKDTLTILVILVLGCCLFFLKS

SMILES | Kd [1] | viability at 48 h, 100 µM [2] | Percentage inhibition of pantothenate uptake [3] | IC50 [4] | viability at 48 h, 100 µM ([2]; A549 cells)
O=C(O)c1cc(OCc2cccc3ccccc23)ccc1O [Compound 1] | > 200 µM | > 100% | 81.8% | – | –
O=C(O)c1cc(OCc2ccc(Br)c3ccccc23)ccc1O [Compound 2] | > 200 µM | – | 117.2% | – | –
CC(C)(C)OC(=O)Nc1ccc(OCc2cccc3ccccc23)cc1C(=O)O [Compound 3] | > 200 µM | 86 ± 11% | 80.7% | – | –
O=C(O)c1cccc(NCc2ccc(-c3ccc(Cl)cc3)o2)c1 [Compound 4] | > 200 µM | – | 95.2% | 321 ± 200 µM | 80 ± 10%
O=C(O)c1cccc(NCc2ccc(-c3cccc(Cl)c3)o2)c1 [Compound 5] | > 200 µM | – | 90.6% | 247 ± 78 µM | 102 ± 17%
O=C(O)c1cccc(NCc2ccc(-c3ccccc3Cl)o2)c1 [Compound 6] | > 200 µM | – | 61.9% | 285 ± 293 µM | 103 ± 7%

From publication PMC11521937, “Expression and characterization of pantothenate energy‐coupling factor transporters as an anti‐infective drug target” (Protein Science : A Publication of the Protein Society, 2024)
